From patent US9730447B2, “Fungicidal amides” (E I DU PONT DE NEMOURS AND COMPANY, priority 2013, dated 2017)
Marks after values point to notes of the source that are not given here.

Legend:
Botrytis cinerea = assay: Test A: preventive spray on tomato seedlings, Botrytis cinerea (gray mold), visual disease rating; format: in vivo; settings: for pest or weed control at 40 µg/mL, 160 g/ha: 96 h
Summary of the method: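 Tomato seedlings sprayed to run-off with 40 ppm or 10 ppm suspensions (160 or 40 g ai/ha) in acetone/water with 250 ppm surfactant. Inoculated with B. cinerea spores next day, held saturated at 20 °C for 48 h, then 27 °C for 2 days. Visual rating, 0–100% disease control relative to controls.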

[1] = system: Stagonospora nodorum (also known as Septoria nodorum); assay: Test B: preventive spray on wheat seedlings, Stagonospora nodorum (wheat glume blotch), visual disease rating; format: in vivo
Summary of the method: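 Compounds in acetone/water (50/50) with 250 ppm Trem 014 surfactant were sprayed to run-off at 40 ppm (160 g ai/ha) or 10 ppm (40 g ai/ha). Seedlings were inoculated with S. nodorum spores the next day, then held 48 h saturated at 20 °C and 6 days in a growth chamber at 20 °C. Visual rating as % disease control vs untreated.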

[2] = system: Puccinia recondite f. sp. tritici; assay: Test D: preventive spray on wheat seedlings, Puccinia recondite f. sp. tritici (wheat leaf rust), visual disease rating; format: in vivo
Summary of the method: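 Wheat seedlings sprayed to run-off with 40 ppm (160 g ai/ha) or 10 ppm (40 g ai/ha) suspension in acetone/water with 250 ppm surfactant, inoculated next day with leaf rust spores. After 24 h saturated at 20 °C then 6 days at 20 °C, visual rating of disease control (0–100) relative to controls.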

Septoria tritici = assay: Test C: preventive spray on wheat seedlings, Septoria tritici (wheat leaf blotch), visual disease rating; format: in vivo
Summary of the method: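 Wheat seedlings sprayed to run-off at 40 ppm or 10 ppm (160 or 40 g ai/ha) in acetone/water with surfactant, inoculated with Septoria tritici spores next day. Held 48 h saturated at 24 °C, then 21 days at 20 °C. Visual rating scored as % disease control relative to controls.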

[3] = system: Erysiphe graminis f. sp. tritici; assay: Test E: preventive spray on wheat seedlings, Erysiphe graminis f. sp. tritici (wheat powdery mildew), visual disease rating; format: in vivo
Summary of the method: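 Wheat seedlings were sprayed to run-off with 40 or 10 ppm suspension (160 or 40 g ai/ha) and dusted with spores the next day. They were then kept 8 days at 20 °C. Disease was rated visually as % control relative to untreated controls (0–100).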

[4] = 100 = 100% disease control, 0 = no control relative to controls, unmarked values
[5] = 100 = 100% disease control, 0 = no control, unmarked values
[6] = values marked with asterisk (*), meaning not given

Compound	melting point	pest or weed control at 40 µg/mL, 160 g/ha (Botrytis cinerea; [4])	Test B disease control rating [1, 5]	Test D disease control rating [2, 5]	Test A disease control rating (Botrytis cinerea; [4])	Test C disease control rating (Septoria tritici; [5])	Test E disease control rating [3, 5]	Test B disease control rating [1, 6]	Test D disease control rating [2, 6]	Test A disease control rating (Botrytis cinerea; [6])	Test C disease control rating (Septoria tritici; [6])	Test E disease control rating [3, 6]
O=C(Nc1ccccc1-c1cnc(-n2ccc(C(F)(F)F)n2)cn1)c1ccccc1C(F)(F)F [Compound 1, 2-(trifluoromethyl)-N-[2-[5-[3-(trifluoromethyl)-1H-pyrazol-1-yl]-2-pyrazinyl]phenyl]benzamide]	180 to 182 °C	27%	–	–	–	–	–	–	–	–	–	–
Cn1cc(C(=O)Nc2ccccc2-c2cnc(-n3ccc(C(F)(F)F)n3)cn2)c(C(F)F)n1 [Compound 2, 3-(difluoromethyl)-1-methyl-N-[2-[5-[3-(trifluoromethyl)-1H-pyrazol-1-yl]-2-pyrazinyl]phenyl]-1H-pyrazole-4-carboxamide]	207 to 209 °C	15%	–	–	–	–	–	–	–	–	–	–
O=C(Nc1ccccc1-c1cnc(-n2ccc(Cl)n2)c(F)c1)c1ncccc1C(F)(F)F [compound 69]	–	–	100%	100%	99%	100%	100%	–	–	–	–	–
O=C(Nc1ccccc1-c1cnc(-n2cc(Cl)cn2)c(F)c1)c1ncccc1C(F)(F)F [compound 70]	–	–	99%	100%	99%	100%	100%	–	–	–	–	–
O=C(Nc1ccccc1-c1cnc(-n2ccc(Br)n2)c(F)c1)c1ncccc1C(F)(F)F [compound 71]	–	–	100%	100%	94%	100%	100%	–	–	–	–	–
O=C(Nc1ccccc1-c1cnc(-n2ccc(-c3ccccc3)n2)c(F)c1)c1ncccc1C(F)(F)F [compound 72]	–	–	0%	97%	92%	100%	91%	–	–	–	–	–
Cn1cc(C(=O)Nc2ccccc2-c2cnc(-n3ccc(Cl)n3)c(F)c2)c(C(F)F)n1 [compound 73]	–	–	100%	100%	96%	100%	100%	–	–	–	–	–
Cn1cc(C(=O)Nc2ccccc2-c2cnc(-n3cc(Cl)cn3)c(F)c2)c(C(F)F)n1 [compound 74]	–	–	0%	100%	96%	100%	100%	–	–	–	–	–
Cn1cc(C(=O)Nc2ccccc2-c2cnc(-n3ccc(Br)n3)c(F)c2)c(C(F)F)n1 [compound 75]	–	–	98%	100%	99%	100%	100%	–	–	–	–	–
Cn1cc(C(=O)Nc2ccccc2-c2cnc(-n3ccc(-c4ccccc4)n3)c(F)c2)c(C(F)F)n1 [compound 76]	–	–	0%	100%	99%	100%	99%	–	–	–	–	–
O=C(Nc1ccccc1-c1cnc(-n2ccc(Cl)n2)c(F)c1)c1ccccc1C(F)(F)F [compound 77]	–	–	0%	100%	74%	100%	98%	–	–	–	–	–
O=C(Nc1ccccc1-c1cnc(-n2cc(Cl)cn2)c(F)c1)c1ccccc1C(F)(F)F [compound 78]	–	–	0%	100%	28%	100%	97%	–	–	–	–	–
O=C(Nc1ccccc1-c1cnc(-n2ccc(Br)n2)c(F)c1)c1ccccc1C(F)(F)F [compound 79]	–	–	0%	100%	25%	100%	99%	–	–	–	–	–
O=C(Nc1ccccc1-c1cnc(-n2ccc(-c3ccccc3)n2)c(F)c1)c1ccccc1C(F)(F)F [compound 80]	–	–	0%	88%	0%	100%	0%	–	–	–	–	–
O=C(Nc1ccccc1-c1ccc(-n2nc(C(F)(F)F)cc2O)nc1)c1ncccc1C(F)(F)F [compound 82]	–	–	–	–	–	–	–	97* %	97* %	31* %	48* %	0* %
N#Cc1cnn(-c2ncc(-c3ccccc3NC(=O)c3ncccc3C(F)(F)F)cc2F)c1 [compound 85]	–	–	0%	99%	70%	45%	0%	–	–	–	–	–
N#Cc1ccn(-c2ncc(-c3ccccc3NC(=O)c3ncccc3C(F)(F)F)cc2F)n1 [compound 86]	–	–	0%	100%	89%	98%	79%	–	–	–	–	–
Cn1cc(C(=O)Nc2ccccc2-c2ccc(-n3ccc(-c4cccc(F)c4)n3)nc2)c(C(F)F)n1 [compound 87]	–	–	0%	100%	99%	97%	64%	–	–	–	–	–
COc1ccc(-c2ccn(-c3ccc(-c4ccccc4NC(=O)c4cn(C)nc4C(F)F)cn3)n2)cc1 [compound 88]	–	–	0%	100%	100%	51%	93%	–	–	–	–	–
COc1ccccc1-c1ccn(-c2ccc(-c3ccccc3NC(=O)c3cn(C)nc3C(F)F)cn2)n1 [compound 98]	–	–	0%	100%	67%	75%	48%	–	–	–	–	–
Cn1cc(C(=O)Nc2ccccc2-c2ccc(-n3ccc(-c4ccc(F)cc4)n3)nc2)c(C(F)F)n1 [compound 99]	–	–	0%	100%	89%	90%	91%	–	–	–	–	–
COc1ccc(-c2ccn(-c3ccc(-c4ccccc4NC(=O)c4cn(C)nc4C(F)F)cn3)n2)c(OC)c1 [compound 100]	–	–	60%	100%	58%	87%	69%	–	–	–	–	–
Cn1cc(C(=O)Nc2ccccc2-c2ccc(-n3ccc(-c4ccc(F)cc4F)n3)nc2)c(C(F)F)n1 [compound 101]	–	–	60%	100%	71%	94%	92%	–	–	–	–	–
N-[2-[5-fluoro-6-[3-(trifluoromethyl)-1H-pyrazol-1-yl]-3-pyridinyl]phenyl]-3-(trifluoromethyl)-2-pyridinecarboxamide [Compound 50]	–	–	100%	100%	99%	100%	100%	–	–	–	–	–
